Test results reported in ChEMBL document CHEMBL1151613, “Potential anticancer agents XXXI. N-demethylation of fagaronine” (1984).
Values after ≈ are worked out from the molar mass of the structure shown. Active and inactive are the calls of the source. The rule behind the calls is not given here.

Key:
KB [1] = experiment: Cytotoxicity against human KB cells after 48 hrs; type: functional; settings: read-out: ED50 (the source's name)
P388 [2] = experiment: Cytotoxicity against mouse P388 cells after 48 hrs; type: functional; settings: P388, 48 h, read-out: ED50 (the source's name)
KB [3] = experiment: Cytotoxicity against human KB cells at 25 ug/ml after 48 hrs; type: functional, cell-based
P388 [4] = experiment: Cytotoxicity against mouse P388 cells at 25 ug/ml after 48 hrs; type: functional, cell-based
LX-1 [5] = experiment: In vivo antitumor activity against human LX1 cells at 1200 mg/kg administered on day 1, 5 and 9 relative to control; type: functional
LX-1 [6] = experiment: In vivo antitumor activity against human LX1 cells at 600 mg/kg administered on day 1, 5 and 9 relative to control; type: functional
LX-1 [7] = experiment: In vivo antitumor activity against human LX1 cells at 300 mg/kg administered on day 1, 5 and 9 relative to control; type: functional
MX1 [8] = experiment: In vivo antitumor activity against human MX1 cells at 1200 mg/kg administered on day 1, 5 and 9 relative to control; type: functional
MX1 [9] = experiment: In vivo antitumor activity against human MX1 cells at 600 mg/kg administered on day 1, 5 and 9 relative to control; type: functional
MX1 [10] = experiment: In vivo antitumor activity against human MX1 cells at 300 mg/kg relative to control on day 1, 5 and 9 relative to control; type: functional
MX1 [11] = experiment: In vivo antitumor activity against human MX1 cells at 150 mg/kg administered on day 1, 5 and 9 relative to control; type: functional
P388 [12] = experiment: In vivo antitumor activity against mouse P388 cells at 320 mg/kg for 1 to 9 days relative to control; type: functional
P388 [13] = experiment: In vivo antitumor activity against mouse P388 cells at 160 mg/kg for 1 to 9 days relative to control; type: functional
P388 [14] = experiment: In vivo antitumor activity against mouse P388 cells at 80 mg/kg for 1 to 9 days relative to control; type: functional
P388 [15] = experiment: In vivo antitumor activity against mouse P388 cells at 40 mg/kg for 1 to 9 days relative to control; type: functional
P388 [16] = experiment: In vivo antitumor activity against mouse P388 cells at 100 mg/kg for 1 to 10 days relative to control; type: functional
P388 [17] = experiment: In vivo antitumor activity against mouse P388 cells at 50 mg/kg for 1 to 10 days relative to control; type: functional
P388 [18] = experiment: In vivo antitumor activity against mouse P388 cells at 25 mg/kg for 1 to 10 days relative to control; type: functional
P388 [19] = experiment: In vivo antitumor activity against mouse P388 cells at 320 mg/kg administered on day 1, 5 and 9 relative to control; type: functional
P388 [20] = experiment: In vivo antitumor activity against mouse P388 cells at 160 mg/kg administered on day 1, 5 and 9 relative to control; type: functional
P388 [21] = experiment: In vivo antitumor activity against mouse P388 cells at 80 mg/kg administered on day 1, 5 and 9 relative to control; type: functional
P388 [22] = experiment: In vivo antitumor activity against mouse P388 cells at 40 mg/kg administered on day 1, 5 and 9 relative to control; type: functional
B16 [23] = experiment: In vivo antitumor activity against mouse B16 cells at 200 mg/kg for 1 to 9 days relative to control; type: functional
B16 [24] = experiment: In vivo antitumor activity against mouse B16 cells at 100 mg/kg for 1 to 9 days relative to control; type: functional
B16 [25] = experiment: In vivo antitumor activity against mouse B16 cells at 50 mg/kg for 1 to 9 days relative to control; type: functional
[26] = In vivo antitumor activity against mouse CD8F1 cells at 2000 mg/kg on day 24 relative to control; type: functional
[27] = In vivo antitumor activity against mouse CD8F1 cells at 1000 mg/kg administered on day 24 relative to control; type: functional
[28] = In vivo antitumor activity against mouse CD8F1 cells at 500 mg/kg administered on day 24 relative to control; type: functional
[29] = In vivo antitumor activity against mouse CD8F1 cells at 250 mg/kg administered on day 24 relative to control; type: functional
[30] = In vivo antitumor activity against mouse CD8F1 cells at 125 mg/kg administered on day 24 relative to control; type: functional
CX-1 [31] = experiment: In vivo antitumor activity against human CX-1 cells at 600 mg/kg administered on day 1, 5, 9 and 13 relative to control; type: functional
CX-1 [32] = experiment: In vivo antitumor activity against human CX-1 cells at 300 mg/kg administered on day 1, 5, 9 and 13 relative to control; type: functional
CX-1 [33] = experiment: In vivo antitumor activity against human CX-1 cells at 150 mg/kg administered on day 1, 5,9 and 13 relative to control; type: functional
CX-1 [34] = experiment: In vivo antitumor activity against human CX-1 cells at 75 mg/kg administered on day 1, 5,9 and 13 relative to control; type: functional
Colon 26 [35] = experiment: In vivo antitumor activity against mouse Colon 26 cells at 320 mg/kg administered on day 1, 5 and 9 relative to control; type: functional
Colon 26 [36] = experiment: In vivo antitumor activity against mouse Colon 26 cells at 160 mg/kg administered on day 1, 5 and 9 relative to control; type: functional
Colon 26 [37] = experiment: In vivo antitumor activity against mouse Colon 26 cells at 80 mg/kg administered on day 1, 5 and 9 relative to control; type: functional
Colon 26 [38] = experiment: In vivo antitumor activity against mouse Colon 26 cells at 40 mg/kg administered on day 1, 5 and 9 relative to control; type: functional
MC-38 [39] = experiment: In vivo antitumor activity against mouse Colon 38 cells at 200 mg/kg administered on day 2 and 9 relative to control; type: functional
MC-38 [40] = experiment: In vivo antitumor activity against mouse Colon 38 cells at 100 mg/kg administered on day 2 and 9 relative to control; type: functional
MC-38 [41] = experiment: In vivo antitumor activity against mouse Colon 38 cells at 50 mg/kg administered on day 2 and 9 relative to control; type: functional
L1210 [42] = experiment: In vivo antitumor activity against mouse L1210 cells at 320 mg/kg administered on day 1 and 9 relative to control; type: functional
L1210 [43] = experiment: In vivo antitumor activity against mouse L1210 cells at 160 mg/kg administered on day 1 and 9 relative to control; type: functional
L1210 [44] = experiment: In vivo antitumor activity against mouse L1210 cells at 80 mg/kg administered on day 1 and 9 relative to control; type: functional
L1210 [45] = experiment: In vivo antitumor activity against mouse L1210 cells at 40 mg/kg administered on day 1 and 9 relative to control; type: functional
L1210 [46] = experiment: In vivo antitumor activity against mouse L1210 cells at 320 mg/kg administered on day 1, 5 and 9 relative to control; type: functional
L1210 [47] = experiment: In vivo antitumor activity against mouse L1210 cells at 160 mg/kg administered on day 1, 5 and 9 relative to control; type: functional
L1210 [48] = experiment: In vivo antitumor activity against mouse L1210 cells at 80 mg/kg administered on day 1, 5 and 9 relative to control; type: functional
L1210 [49] = experiment: In vivo antitumor activity against mouse L1210 cells at 40 mg/kg administered on day 1, 5 and 9 relative to control; type: functional
[50] = system: Lewis lung carcinoma cell line; experiment: In vivo antitumor activity against mouse LLC cells at 200 mg/kg for 1 to 9 days relative to control; type: functional
[51] = system: Lewis lung carcinoma cell line; experiment: In vivo antitumor activity against mouse LLC cells at 100 mg/kg for 1 to 9 days relative to control; type: functional
[52] = system: Lewis lung carcinoma cell line; experiment: In vivo antitumor activity against mouse LLC cells at 50 mg/kg for 1 to 9 days relative to control; type: functional
[53] = system: Lewis lung carcinoma cell line; experiment: In vivo antitumor activity against mouse LLC cells at 25 mg/kg for 1 to 9 days relative to control; type: functional
LX-1 [54] = experiment: In vivo antitumor activity against human LX1 cells at 2400 mg/kg administered on day 1, 5 and 9 relative to control; type: functional

Compound COc1cc2c(cnc3c4cc(OC)c(OC(C)=O)cc4ccc23)cc1OC(C)=O has an EC50 (KB [1]) of 50 µg/mL (≈ 123 µM) and an EC50 (P388 [2]) of 12.5 µg/mL (≈ 30.8 µM).

With COc1cc2c(ccc3c4cc(OC)c(OC)cc4cnc23)cc1O the Activity (KB [3]) was “inactive” and the EC50 (P388 [2]) was 36.5 µg/mL (≈ 109 µM).

With COc1cc2c(cnc3c4cc(OC)c(O)cc4ccc23)cc1O the EC50 (KB [1]) was 22.4 µg/mL (≈ 69.7 µM) and the EC50 (P388 [2]) was 13 µg/mL (≈ 40.5 µM).

With COc1cc2cnc3c4cc(OC)c(OC(C)=O)cc4ccc3c2cc1OC the Activity (KB [3]) was “inactive” and the Activity (P388 [4]) was “inactive”.

With COc1cc2cnc3c4cc(OC)c(OC)cc4ccc3c2cc1OC the Activity (KB [3]) was “inactive” and the Activity (P388 [4]) was “inactive”.

COc1cc2c(ccc3c4cc(OC)c(OC)cc4c[n+](C)c23)cc1O.[Cl-] [FAGARONINE] showed a T/C (LX-1 [5]) of 46%, a T/C (LX-1 [6]) of 79% and a T/C (LX-1 [7]) of 107%. For the same compound, the T/C (MX1 [8]) was 68%, the T/C (MX1 [9]) was 79% and the T/C (MX1 [10]) was 74%. It also gave a T/C (MX1 [11]) of 83%, a T/C (P388 [12]) of 205% and a T/C (P388 [13]) of 270%. It also gave a T/C (P388 [14]) of 210%, a T/C (P388 [15]) of 190% and a T/C (P388 [16]) of 265%. The T/C (P388 [17]) was 210%, the T/C (P388 [18]) was 90% and the T/C (P388 [19]) was 270%. The T/C (P388 [20]) was 215%, the T/C (P388 [21]) was 180% and the T/C (P388 [22]) was 190%. It also gave an EC50 (KB [1]) of 0.57 µg/mL, an EC50 (P388 [2]) of 0.18 µg/mL and a T/C (B16 [23]) of 100%. The T/C (B16 [24]) was 97%, the T/C (B16 [25]) was 108% and the T/C [26] was 121%. It also gave a T/C [27] of 89%, a T/C [28] of 134% and a T/C [29] of 190%. For the same compound, the T/C [30] was 137%, the T/C (CX-1 [31]) was 75% and the T/C (CX-1 [32]) was 51%. It also gave a T/C (CX-1 [33]) of 42%, a T/C (CX-1 [34]) of 49% and a T/C (Colon 26 [35]) of 138%. It also gave a T/C (Colon 26 [36]) of 120%, a T/C (Colon 26 [37]) of 121% and a T/C (Colon 26 [38]) of 117%. The T/C (MC-38 [39]) was 81%, the T/C (MC-38 [40]) was 89% and the T/C (MC-38 [41]) was 139%. For the same compound, the T/C (L1210 [42]) was 161%, the T/C (L1210 [43]) was 145% and the T/C (L1210 [44]) was 159%. The T/C (L1210 [45]) was 137%, the T/C (L1210 [46]) was 137% and the T/C (L1210 [47]) was 136%. For the same compound, the T/C (L1210 [48]) was 145%, the T/C (L1210 [49]) was 143% and the T/C [50] was 134%. The T/C [51] was 125%, the T/C [52] was 113% and the T/C [53] was 111%. For the same compound, the T/C (LX-1 [54]) was 65%.
